We go through one compound from patent US9539275B2, “Melanogenesis effect of saponins of gynostemma pentaphyllum” (Hong Kong Baptist University, priority 2014, dated 2017).

SMILES strings stand for the structures.

Assay type in all cases: cell-based, Mouse
The subject of series [1] is B16 cells. The series is described as follows: Colour of culture medium (extracellular melanin) and cell pellets, B16 cells. The method, then:
(§1) The PKA signaling pathway is known to take part in regulating melanogenic events. […] To further investigate the involvement of the PKA pathway in the induction of the melanogenic effect of GpS in B16 and B6F10 cells, a PKA inhibitor, H89, is employed. […] Cells are treated with GpS in the presence or absence of H89 inhibitor. […] H89 treatment effectively lightens the color of the culture medium as well as the cell pellets.

Series [2] relates to B16F10 cells. The series can be described thus: MTT cell viability assay in B16F10 cells. The note with it: H89 up to 5 μM, 48 hours. As for the experimental part:
(§2) Cell viabilities were determined using the MTT assay. Briefly, cells were seeded in 96-well plates (1×10^3 cells/well) and allowed to adhere at 37° C. for 24 hours. Various concentrations of drugs were then added. After 48 hours incubation, 20 μl of MTT solution (2.5 mg/ml in PBS) was added to each well and cells were incubated at 37° C. for 4 hours. Following medium removal, 100 μl of DMSO were added to each well and the plates were gently shaken for 5 minutes. Optical absorbance was determined at 570 nm with a microplate spectrophotometer (BD Bioscience, USA). Absorbance of cells without treatment was regarded as 100% of cell survival. Each treatment was performed in triplicate and each experiment was repeated three times.
Background: Tetrazolium dyes change colour on reduction, which living cells bring about.

Series [3] relates to CREB. The series can be described thus: Western blotting of p-CREB and CREB in B16 cells. Particulars: 5 μM H89 in GpS-treated cells. As for the experimental part:
(§3) Cells were collected and total protein lysates were extracted with RIPA lysis buffer [50 mM Tris-Cl, 1% v/v NP-40, 0.35% w/v sodium-deoxycholate, 150 mM NaCl, 1 mM EDTA, 1 mM EGTA, 1 mM phenylmethylsulfonyl fluoride (PMSF), 1 mM NaF, 1 mM Na3VO4, pH adjusted to 7.4] containing a protease inhibitor cocktail (Roche, Germany) for 30 minutes on ice. After centrifugation at 20,800×g for 15 minutes at 4° C., the supernatant was collected and regarded as total cell lysates.
(§4) Protein concentration was determined by DC Protein Assay (Bio Rad, USA). A standard curve was created by bovine serum albumin (BSA) concentration 0, 0.375, 0.75 and 1.5 μg/μl for the determination of the absolute protein concentration. Then, the mixture of reagent A and reagent S (50:1) was mixed with 5 μl of protein lysate. Then 200 μl of reagent B were added and mixed with 10 minutes incubation at room temperature. Finally, the absorbance was determined at 700 nm with a microplate spectrophotometer (BD Bioscience, USA). […]
(§5) Membranes were blocked for 30 minutes with 3% Bovine Serum Albumin in TBST buffer composed of 50 mM Tris (pH 7.6), 150 mM NaCl and 0.1% Tween-20 and incubated with the primary antibody overnight at 4° C. GADPH was used as loading control and was detected using an anti-GADPH polyclonal antibody (Santa cruz Biotechnology). […]
On the technique in general: Immunoblotting shows a protein as a band on a membrane.

Series [4] has as its system tyrosinase. The series is described as follows: Tyrosinase activity assay in B16 cells. The note with it: 5 μM H89 with GpS 50-150 μg/ml, 48 hours. As for the experimental part:
(§6) Cells were seeded in 96-well plates (3×10^3 cells/well) and allowed to adhere at 37° C. for 24 hours. Test samples were then added to individual wells. After 48 hours incubation, cells were washed with ice-cold PBS and 100 μl of 0.1% Triton X-100 lysis buffer were added into each well and lysed at −80° C. for 30 minutes. After freezing and thawing, 100 μl of freshly prepared substrate solution (0.1% L-DOPA) were added into a well on a 96-well plate. Following 2 hours incubation, the absorbance was determined at 475 nm with a microplate spectrophotometer (BD Bioscience, USA). Each percentage value of the drug-treated cells was calculated with respect to that of control cells. Each treatment was repeated three times.

Series [5] concerns B16 cells. The series can be described thus: Measurement of cellular melanin contents in B16 cells. The note with it: 5 μM H89 with GpS 50-150 μg/ml, 48 hours. The method, then: (§7) Cells were seeded in a 60 mm dish (2×10^5 cells/dish) and allowed to adhere at 37° C. for 24 hours. After adding test samples, cells were incubated for 48 hours and then washed with PBS and lysed in 120 μl of 1 M NaOH followed by 10 minutes of heating at 100° C. to solubilize the melanin. Each lysate (100 μl) was added into a well of a 96-well microplate, and the absorbance was determined at 475 nm with a microplate spectrophotometer (BD Bioscience, USA). The protein concentration of each sample was determined by DC Protein Assay (BIO-RAD, USA). Each experiment was repeated three times. The intracellular melanin amount/protein amount was shown as percentage values. Each percentage value of the drug-treated cells was calculated with respect to that of control cells.

Series [6] concerns B16F10 cells. The series can be described thus: Colour of culture medium (extracellular melanin) and cell pellets, B16F10 cells. The method, then:
as §1

Series [7] concerns CREB. The series can be described thus: Western blotting of p-CREB and CREB in B16F10 cells. The note with it: 5 μM H89 in GpS-treated cells. As for the experimental part:
as §3, §4, §5

Series [8] deals with B16F10 cells. The series can be described thus: Measurement of cellular melanin contents in B16F10 cells. Particulars: 5 μM H89 with GpS 50-100 μg/ml, 48 hours. The method, then:
as §7

For series [9], the system named is tyrosinase. The series can be described thus: Tyrosinase activity assay in B16F10 cells. Particulars: 5 μM H89 with GpS 50-100 μg/ml, 48 hours. The method, then:
as §6

Series [10] has as its system B16 cells. The series can be described thus: MTT cell viability assay in B16 cells. The note with it: H89 up to 5 μM, 48 hours. As for the experimental part:
as §2

Setting [11] is: co-treated with 5 μM H89 and GpS, compared with GpS-treated cells.

In the case of `O=S(=O)(NCCNC/C=C/c1ccc(Br)cc1)c1cccc2cnccc12` [H89], the “colour of cell pellets” value in the series on B16 cells [1] (setting [11]) and in the series with B16F10 cells [6] (setting [11]) was “lighter in color” each time. Also, the “secretion of melanin induced by GpS” value with B16 cells [1] (co-treatment with H89) and with B16F10 cells [6] (co-treatment with H89) was “attenuated” each time. In addition, the “cytotoxicity (MTT)” value in the series with B16F10 cells [2] and with B16 cells [10] was “no cytotoxicity” throughout. In addition, the “GpS-induced p-CREB expression” value in the series with CREB [3] and in the series on CREB [7] was “significantly attenuates” each time. For the same compound, the “total CREB expression” value in the series with CREB [3] and with CREB [7] was “without significant influence” throughout. Also, the “GpS-induced increment of cellular tyrosinase activity” value with tyrosinase [4] and with tyrosinase [9] was “significantly attenuated” each time. In addition, the “GpS-induced increment of melanin content” value in the series on B16 cells [5] and in the series with B16F10 cells [8] was “significantly attenuated” in each case.
